Measured values taken from patent US7666875B2, “Hydantoin compounds” (Eisai R&D Management Co., Ltd., priority 2005, dated 2010).

Target: T1, human T-bet (Homo sapiens, UniProt Q9UL17)
T1 construct: expressed in transfected cells; host or cells: engineered HEK cells (HEKT-bet)
T1 sequence (Q9UL17 1-535): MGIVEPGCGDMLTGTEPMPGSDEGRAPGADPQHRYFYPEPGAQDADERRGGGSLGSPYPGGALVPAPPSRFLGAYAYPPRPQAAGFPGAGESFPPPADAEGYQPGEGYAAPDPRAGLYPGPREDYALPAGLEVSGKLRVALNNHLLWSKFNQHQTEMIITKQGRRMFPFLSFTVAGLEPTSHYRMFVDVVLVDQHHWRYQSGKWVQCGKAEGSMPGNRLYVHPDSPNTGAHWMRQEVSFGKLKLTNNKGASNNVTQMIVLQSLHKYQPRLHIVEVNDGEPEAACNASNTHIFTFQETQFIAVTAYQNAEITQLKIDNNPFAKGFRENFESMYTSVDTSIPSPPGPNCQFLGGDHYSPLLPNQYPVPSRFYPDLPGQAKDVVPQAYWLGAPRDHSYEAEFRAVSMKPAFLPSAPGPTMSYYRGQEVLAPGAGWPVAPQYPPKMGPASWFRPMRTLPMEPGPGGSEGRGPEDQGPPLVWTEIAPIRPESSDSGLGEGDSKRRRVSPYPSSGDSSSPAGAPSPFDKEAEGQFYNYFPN
Assay: HEKT-bet-luc assay (T-bet dependent luciferase reporter in engineered HEK cells)
Type: cell-based
Conditions: Table 4; HEKT-bet cells, compound 24 hours; IC50 normalized to reference ER-213038; read-out: IC50
Experimental: HEKT-bet-luc assay: This assay measures a T-bet dependent reporter (luciferase) activity in engineered HEK cells that express a human T-bet and a T-box responsive element driving luciferase reporter. HEKT-bet cells were plated at 2×10^4/well in 96-well plate and compound was added into cell culture for 24 hours. Luciferase activity was measured by adding 50 μl of Steady-Glo reagent (Promega) and samples were read in Victor V reader (PerkinElmer). The IC50 values were calculated utilizing a maximum value corresponding to the amount of luciferase in the absence of a test compound and a minimum value corresponding to a test compound value obtained at maximum inhibition.
Determination of Normalized HEKT-bet IC50 values: Compounds were assayed in microtiter plates. Each plate included a reference compound which was ER-213038. The un-normalized IC50 value for a particular compound was divided by the IC50 value determined for the reference compound in the same microtiter plate to provide a relative potency value. The relative potency value was then multiplied by the established potency of the reference compound to provide the normalized HEKT-bet IC50 value. […] The IC50 values provided herein were obtained using this normalization method.

Row | IC50 [nM] | SMILES
1 | 290 | COc1cccc(CN2C(=O)N(Cc3cccc(OC)c3)C3(CCN(Cc4cc(OC)cc(OC)c4)CC3)C2=O)c1 [Example 202]
2 | 291 | COCCN1C(=O)N(Cc2cccc(OC)c2)C(=O)C12CCN(Cc1cccc(OC(F)(F)F)c1)CC2 [Example 203]
3 | 298 | O=C1N(C/C=C/c2ccccc2)C(=O)C2(CCN(Cc3cccc4ccccc34)CC2)N1CCO [Example 204]
4 | 298 | COCCN1C(=O)N(C/C=C/c2cccc(C)c2)C(=O)C12CCN(Cc1ccccc1)CC2 [Example 205]
5 | 311 | COCN1C(=O)N(C/C=C/c2ccccc2)C(=O)C12CCN(Cc1cccc3ccccc13)CC2 [Example 206]
6 | 317 | COCCCN1C(=O)N(Cc2cc(OC)cc(OC)c2)C(=O)C12CCN(Cc1cc(OC)cc(OC)c1)CC2 [Example 207]
7 | 317 | COCCN1C(=O)N(CCCOc2ccccc2)C(=O)C12CCN(Cc1cccc(C)c1)CC2 [Example 208]
8 | 325 | COCCN1C(=O)N(Cc2cccc(OC)c2)C(=O)C12CCN(Cc1cc(-c3ccccc3)ccc1OC)CC2 [Example 209]
9 | 333 | COCCN1C(=O)N(Cc2cccc(OC)c2)C(=O)C12CCN(Cc1cccc3c1OCO3)CC2 [Example 210]
10 | 334 | COc1cccc(CN2C(=O)N(CCn3cccc3)C3(CCN(Cc4cccc5ccccc45)CC3)C2=O)c1 [Example 211]
11 | 336 | COCCN1C(=O)N(Cc2cccc(OC)c2)C(=O)C12CCN(Cc1ccc(C)c(C)c1)CC2 [Example 212]
12 | 337 | COCCN1C(=O)N(Cc2cccc(OC)c2)C(=O)C12CCN(Cc1ccc3ccccc3c1)CC2 [Example 213]
13 | 344 | CCN1C(=O)N(Cc2ccc3ccccc3c2)C(=O)C12CCN(Cc1cccc(OC)c1)CC2 [Example 214]
14 | 348 | COCCN1C(=O)N(Cc2cc(OC)ccc2OC)C(=O)C12CCN(Cc1cc(OC)cc(OC)c1)CC2 [Example 215]
15 | 349 | COc1cccc(CN2C(=O)N(CCCO)C3(CCN(Cc4cccc5ccccc45)CC3)C2=O)c1 [Example 216]
16 | 350 | CCN1C(=O)N(CCCOc2ccccc2)C(=O)C12CCN(Cc1cc(OC)cc(OC)c1)CC2 [Example 217]
17 | 351 | COCCN1C(=O)N(Cc2cccc(OC)c2)C(=O)C12CCN(Cc1cccc(-c3ccncc3)c1)CC2 [Example 218]
18 | 362 | COCCN1C(=O)N(Cc2cccc(OC)c2)C(=O)C12CCN(Cc1ccc(OC)c(OC)c1C)CC2 [Example 219]
19 | 362 | COCCN1C(=O)N(CCCOc2ccccc2)C(=O)C12CCN(Cc1cccc(OC)c1)CC2 [Example 220]
20 | 365 | CCN1C(=O)N(CCCc2ccccc2)C(=O)C12CCN(Cc1cc(OC)cc(OC)c1)CC2 [Example 221]
21 | 366 | COCCN1C(=O)N(CCCc2ccccc2OC)C(=O)C12CCN(Cc1ccccc1)CC2 [Example 222]
22 | 371 | O=C1N(C/C=C/c2ccccc2)C(=O)C2(CCN(Cc3cccc4ccccc34)CC2)N1Cc1ccncc1 [Example 223]
23 | 371 | COCCN1C(=O)N(Cc2cccc(OC)c2)C(=O)C12CCN(Cc1cccc(-c3ccc(S(C)(=O)=O)cc3)c1)CC2 [Example 224]
24 | 373 | COCCN1C(=O)N(Cc2cccc(OC)c2)C(=O)C12CCN(Cc1cccc(N3CCCCC3)c1)CC2 [Example 225]
25 | 373 | COCCN1C(=O)N(C/C=C/c2ccccc2C)C(=O)C12CCN(Cc1ccccc1)CC2 [Example 226]
26 | 373 | COCCN1C(=O)N(Cc2cccc(OC)c2)C(=O)C12CCN(Cc1cc3ccccc3nc1Cl)CC2 [Example 227]
27 | 374 | COCCN1C(=O)N(Cc2cccc(OC)c2)C(=O)C12CCN(Cc1ccc(C)cc1C)CC2 [Example 228]

Row | IC50 [nM] | SMILES
28 | 377 | COc1cccc(CN2C(=O)N(Cc3cccc(-n4cccc4)c3)C3(CCN(Cc4cccc5ccccc45)CC3)C2=O)c1 [Example 229]
29 | 379 | COCCN1C(=O)N(Cc2cccc(OC)c2)C(=O)C12CCN(Cc1cccc(N3CCOCC3)c1)CC2 [Example 230]
30 | 385 | COc1cccc(CN2C(=O)N(Cc3ccc4c(c3)nnn4C)C3(CCN(Cc4cccc5ccccc45)CC3)C2=O)c1 [Example 231]
31 | 385 | COCCN1C(=O)N(CCCOc2ccccc2)C(=O)C12CCN(Cc1ccc3ccccc3c1)CC2 [Example 232]
32 | 386 | COCCN1C(=O)N(Cc2cccc(OC)c2)C(=O)C12CCN(Cc1cccc(C)c1)CC2 [Example 233]
33 | 387 | COCCN1C(=O)N(Cc2cccc(OC)c2)C(=O)C12CCN(Cc1ccccc1)CC2 [Example 234]
34 | 390 | COCCN1C(=O)N(Cc2cccc(OC)c2)C(=O)C12CCN(Cc1cccc(Cl)c1)CC2 [Example 235]
35 | 395 | COCCN1C(=O)N(Cc2ccc(OC(F)(F)F)cc2)C(=O)C12CCN(Cc1ccccc1)CC2 [Example 236]
36 | 414 | COCCN1C(=O)N(Cc2cc(OC)cc(OC)c2)C(=O)C12CCN(Cc1cccc(OC)c1)CC2 [Example 237]
37 | 414 | COCCN1C(=O)N(Cc2cccc(OC)c2)C(=O)C12CCN(Cc1cccc(-c3ccc(NC(C)=O)cc3)c1)CC2 [Example 238]
38 | 417 | COCCN1C(=O)N(Cc2cccc(OC)c2)C(=O)C12CCN(Cc1cccc(OC)c1)CC2 [Example 239]
39 | 420 | O=C1N(C/C=C/c2ccccc2)C(=O)C2(CCN(Cc3cccc4ccccc34)CC2)N1Cc1ccccn1 [Example 240]
40 | 424 | COc1cccc(CN2C(=O)N(Cc3ccccn3)C3(CCN(Cc4cccc5ccccc45)CC3)C2=O)c1 [Example 241]
41 | 424 | COCCN1C(=O)N(Cc2cccc(OC)c2)C(=O)C12CCN(Cc1cccc3cccnc13)CC2 [Example 242]
42 | 431 | COCCN1C(=O)N(Cc2cccc(-c3ccccc3)c2)C(=O)C12CCN(Cc1ccccc1)CC2 [Example 243]
43 | 432 | COCCN1C(=O)N(Cc2cccc(OC)c2)C(=O)C12CCN(Cc1cc(OC)c3c(c1)OCO3)CC2 [Example 244]
44 | 432 | COCCN1C(=O)N(Cc2cccc(OC)c2)C(=O)C12CCN(Cc1nn(-c3ccccc3)nc1C)CC2 [Example 245]
45 | 435 | COCCN1C(=O)N(CCCC2CCCCC2)C(=O)C12CCN(Cc1ccccc1)CC2 [Example 246]
46 | 436 | O=C1N(C/C=C/c2ccccc2)C(=O)C2(CCN(Cc3cccc4ccccc34)CC2)N1Cc1cccc2cccnc12 [Example 247]
47 | 438 | COCCN1C(=O)N(CCCc2ccccc2)C(=O)C12CCN(Cc1cccc(C)c1)CC2 [Example 248]
48 | 441 | COCCCN1C(=O)N(Cc2cccc(OC)c2)C(=O)C12CCN(Cc1cc(OC)cc(OC)c1)CC2 [Example 249]
49 | 442 | COCCN1C(=O)N(Cc2ccc3ccccc3c2)C(=O)C12CCN(Cc1ccc3ccccc3c1)CC2 [Example 250]
50 | 447 | O=C1N(C/C=C/c2ccccc2)C(=O)C2(CCN(Cc3cccc4ccccc34)CC2)N1CCn1cccc1 [Example 251]
51 | 448 | CCN1C(=O)N(CCCc2ccccc2)C(=O)C12CCN(Cc1cccc(C)c1)CC2 [Example 252]
52 | 450 | COCCN1C(=O)N(Cc2cc(F)cc(F)c2)C(=O)C12CCN(Cc1cc(OC)cc(OC)c1)CC2 [Example 253]
53 | 451 | COCCN1C(=O)N(Cc2cccc(OC)c2)C(=O)C12CCN(Cc1cccc(-c3ccco3)c1)CC2 [Example 254]
54 | 452 | COCCN1C(=O)N(Cc2cccc(OC)c2)C(=O)C12CCN(Cc1cc(OC)ccc1F)CC2 [Example 255]
